{"source": "patent US20090099150A1", "about": "“Methotrexate Combinations For Treating Inflammatory Diseases” (priority 2005, published 2009)", "key": {"[1]": {"tested_on": "collagen-induced arthritis", "experiment": "Clinical assessment of collagen-induced arthritis (percent arthritic rats, arthritis index)", "assay_type": "in vivo, Lewis rats", "details": "CIA rats"}, "[2]": {"tested_on": "collagen-induced arthritis", "experiment": "Hind paw volume by plethysmometry in collagen-induced arthritis", "assay_type": "in vivo, Lewis rats", "details": "CIA rats, alone"}, "[3]": {"tested_on": "collagen-induced arthritis", "experiment": "Histological assessment of joint injury at day 35", "assay_type": "in vivo, Lewis rats", "details": "CIA rats, methotrexate 0.15 mg/kg orally"}, "[4]": {"tested_on": "collagen-induced arthritis", "experiment": "Radiography of hind paws at day 35", "assay_type": "in vivo, Lewis rats", "details": "CIA rats; for protection from bone resorption / joint pathology (FIG. 4: histological damage score and radiograph score): alone; for radiographic bone resorption / joint pathology of hind paws: methotrexate 0.15 mg/kg orally"}, "[5]": {"tested_on": "TNF-α", "experiment": "Plasma TNF-α level (ELISA) at 35 days in collagen-induced arthritis", "assay_type": "in vivo, Lewis rats", "details": "CIA rats, day 35", "method": "(§1) Animals were randomly divided into sixth groups (n=10 for each group); (1) Sham group receiving intraperitoneally 26 mM sodium bicarbonate buffer at pH 8.1-8.3 which constituted the vehicle for M40403; (2) CIA group which constituted rats subjected to collagen induced arthritis as described below; (3) CIA+M40403 (2 mg/kg) group in which rats subjected to collagen-induced arthritis received M40403 at 2 mg/kg i.p. every 24 h, starting from day 25; (4) CIA+MET (0.015 mg/kg) group in which rats subjected to collagen-induced arthritis received orally, methotrexate at 0.015 mg/kg starting from day 25; (5) CIA+MET (0.15 mg/kg) group in which rats subjected to collagen-induced arthritis received orally, methotrexate at 0.15 mg/kg starting from day 25; (6)\n(§2) CIA+MET+M40403 group in which rats subjected to collagen-induced arthritis received methotrexate (0.015 mg/kg; orally) and with M4043 (2 mg/kg, i.p.) starting from day 25.\n(§3) Collagen-induced arthritis was produced as follows. Bovine type II collagen was dissolved in 0.01 M acetic acid at a concentration of 2 mg/ml by stirring overnight at 4° C. Dissolved collagen was frozen at −70° C. until use. Complete Freund's adjuvant was prepared by the addition of Mycobacterium tuberculosis H37Ra at a concentration of 2 mg/ml. Before injection, the collagen was emulsified with an equal volume of complete Freund's adjuvant. Collagen-induced arthritis was elicited as previously described (Salvemini et al Arthritis & rheumatism 44:2909-2921, 2001). On day 1, Lewis rats were injected intradermally at the base of the tail with 100 μl of the emulsion (containing 100 μg of bovine type II collagen). On day 21, a second injection of type II collagen in complete Freund's adjuvant was administered.\n(§4) TNF-α and IL-1β levels were evaluated in plasma at 35 days after the induction of arthritis. The assay was carried out by using a calorimetric, commercial kit (Calbaiochem-Novabiochem Corporation, USA). The ELISA has a lower detection limit of 5 pg/ml."}, "[6]": {"tested_on": "IL-1β", "experiment": "Plasma IL-1β level (ELISA) at 35 days in collagen-induced arthritis", "assay_type": "in vivo, Lewis rats", "details": "CIA rats, day 35", "method": "as §1, §2, §3, §4"}, "[7]": {"experiment": "Body weight gain in collagen-induced arthritis", "assay_type": "in vivo, Lewis rats", "details": "CIA rats", "method": "as §1, §2, §3"}, "[8]": {"tested_on": "type II collagen induced arthritis", "details": "Salvemini et al., Arthritis & Rheumatism 44:2909-2921, 2001; cited from earlier work"}, "[9]": {"tested_on": "inflammation", "details": "Salvemini et al., Science 286:304-306, 1999; cited from earlier work"}, "[10]": {"details": "methotrexate 0.015 mg/kg orally, alone"}, "[11]": {"details": "methotrexate 0.015 mg/kg orally"}}, "data": [{"compound": "CN(Cc1cnc2nc(N)nc(N)c2n1)c1ccc(C(=O)N[C@@H](CCC(=O)O)C(=O)O)cc1", "note": "[methotrexate, N-[4-[[(2,4-Diamino-6-pteridinyl)methyl]methylamino]benzoyl]-L-glutamic acid]", "values": [{"measurement": "development of collagen-induced arthritis (percent of arthritic rats)", "setting": "[1]; methotrexate 0.015 mg/kg orally from day 25, alone", "value": "did not significantly altered the development of collagen-induced arthritis"}, {"measurement": "arthritis index", "setting": "[1]; [10]", "value": "Neither M40403 (2 mg/kg) nor methotrexate. (0.015 mg/kg) treatment alone attenuated the arthritis index"}, {"measurement": "development of collagen-induced arthritis (percent of arthritic rats)", "setting": "[1]; methotrexate 0.15 mg/kg orally from day 25, alone", "value": "significant reduction in the percent of arthritic rats"}, {"measurement": "arthritis index", "setting": "[1]; methotrexate 0.15 mg/kg orally, between days 26 and 35 after immunization", "value": "significant suppression (P<0.01)"}, {"measurement": "hind paw volume (paw edema)", "setting": "[2]; [11]", "value": "attenuated the paw edema from day 30 to 35"}, {"measurement": "hind paw volume (hind paw swelling)", "setting": "[2]; methotrexate 0.15 mg/kg orally", "value": "continuously significant (P<0.001) suppression of hind paw swelling from day 26 to 35"}, {"measurement": "Emax at 0.15 mg/kg", "setting": "[2]; Rattus norvegicus, po, 672 h, methotrexate 0.15 mg/kg orally, from day 28 to 35, read-out: maximal response, suppression of hind paw swelling", "value": 70, "unit": "%"}, {"measurement": "histology of the paw: bone erosion and degree of arthritis (damage score)", "setting": "[3]", "value": "the bone erosion as well as the degree of arthritis were significantly reduced"}, {"measurement": "protection from bone resorption / joint pathology (FIG. 4: histological damage score and radiograph score)", "setting": "[4]; [11]", "value": "No significant protection"}, {"measurement": "radiographic bone resorption / joint pathology of hind paws", "setting": "[4]", "value": "suppression of joint pathology"}, {"measurement": "radiographic bone resorption / joint pathology of hind paws", "setting": "[4]; listed as Methogtrexate", "value": "markedly protect from bone resorption"}, {"measurement": "plasma level of TNF-α", "setting": "[5]; [10]", "value": "No significant effect"}, {"measurement": "plasma level of TNF-α", "setting": "[5]; methotrexate 0.15 mg/kg orally", "value": "significantly lower"}, {"measurement": "plasma level of IL-1β", "setting": "[6]; [10]", "value": "No significant effect"}, {"measurement": "plasma level of IL-1β", "setting": "[6]; methotrexate 0.15 mg/kg orally", "value": "significantly lower"}, {"measurement": "body weight gain", "setting": "[7]; [10]", "value": "significantly attenuated the loss in body weight"}, {"measurement": "body weight gain", "setting": "[7]; methotrexate 0.15 mg/kg orally", "value": "positively affected the weight gain"}]}, {"compound": "[Cl-].[Cl-].[Mn+2].c1cc2nc(c1)CN[C@@H]1CCCC[C@H]1NCCN[C@@H]1CCCC[C@H]1NC2", "note": "[M40403]", "values": [{"measurement": "development of collagen-induced arthritis (percent of arthritic rats)", "setting": "[1]; M40403 2 mg/kg i.p. every 24 h from day 25, alone", "value": "did not significantly altered the development of collagen-induced arthritis"}, {"measurement": "arthritis index", "setting": "[1]; M40403 2 mg/kg i.p., alone", "value": "Neither M40403 (2 mg/kg) nor methotrexate. (0.015 mg/kg) treatment alone attenuated the arthritis index"}, {"measurement": "hind paw volume (paw edema)", "setting": "[2]; M40403 2 mg/kg i.p.", "value": "attenuated the paw edema from day 30 to 35"}, {"measurement": "protection from bone resorption / joint pathology (FIG. 4: histological damage score and radiograph score)", "setting": "[4]; M40403 2 mg/kg i.p.", "value": "No significant protection"}, {"measurement": "plasma level of TNF-α", "setting": "[5]; M40403 2 mg/kg i.p., alone", "value": "No significant effect"}, {"measurement": "plasma level of IL-1β", "setting": "[6]; M40403 2 mg/kg i.p., alone", "value": "No significant effect"}, {"measurement": "body weight gain", "setting": "[7]; M40403 2 mg/kg i.p., alone", "value": "significantly attenuated the loss in body weight"}, {"measurement": "efficacy in an animal model of rheumatoid arthritis", "setting": "[8]", "value": "effective"}, {"measurement": "efficacy in animal models of inflammation", "setting": "[9]", "value": "effective"}]}]}
